We go through eight molecules from patent publication US5236931A, “2-substituted benzamide and benzoate derivatives of 3-aminoquinuclidine and 3-quinuclidinol” (priority 1992, dated 1993).

The conditions of assay [1]: reported by Mikhlina et al; cited from earlier work.
Assay [2] concerns gastric emptying of a test meal. Description: Effect on Gastric Emptying of a Test Meal in Rats. Format: in vivo. The conditions noted are these: rat.

For the molecule `Nc1ccc(C(=O)NC2CN3CCC2CC3)cc1` (centres unmarked) [4-amino-N-(1-azabicyclo[2.2.2]oct-3-yl)-benzamide], in assay [1], the reported activities result is “hypotensive, narcotic and ganglionic stimulation and blocking activities”.

Consider `Nc1cc(OCc2cccc(I)c2)c(C(=O)NC2CN3CCC2CC3)cc1Cl` (centres unmarked) [Example VII, 4-Amino-N-(1-azabicyclo[2.2.2]oct-3-yl)-5-chloro-2-[(3-iodophenyl)methoxy]benzamide], for which the “Gastric emptying: % change in meal emptied” value (“Gastric emptying: % change” below) in assay [2] (0.10 mg/kg IP) is on record as 28%.

Turning to `Cc1nc(COc2cc(N)c(Cl)cc2C(=O)NC2CN3CCC2CC3)cs1` (centres unmarked) [Example I, 4-Amino-N-(1-azabicyclo[2,2,2]oct-3-yl)-5-chloro-2-[(2-methylthiazol-4-yl)methoxy]benzamide], the “Gastric emptying: % change” value in assay [2] (9.0 mg/kg IP) worked out at 36%.

For `Nc1cc(OCc2ccccc2)c(C(=O)NC2CN3CCC2CC3)cc1Cl` (centres unmarked) [Example V, 4-Amino-N-(1-azabicyclo[2.2.2]oct-3-yl)-5-chloro-2-(phenylmethoxy)benzamide], the “Gastric emptying: % change” value in assay [2] (1.0 mg/kg IP) came to 61%.

`Cc1nc(COc2cc(N)c(Cl)cc2C(=O)N[C@H]2CN3CCC2CC3)cs1` [Example I (R)-isomer, (R)-(+)-4-Amino-N-(1-azabicyclo[2,2,2]oct-3-yl)-5-chloro-2-[(2-methyl-4-thiazolyl)methoxy]benzamide]: the “Gastric emptying: % change” value in assay [2] (9.0 mg/kg IP) turned out to be 34%.

Consider `Cc1nc(COc2cc(N)c(Cl)cc2C(=O)N[C@@H]2CN3CCC2CC3)cs1` [Example I (S)-isomer, S-(-)-4-Amino-N-(1-azabicyclo[2,2,2]oct-3-yl)-5-chloro-2-[(2-methyl-4-thiazolyl)methoxy]benzamide], for which, in assay [2] (9.0 mg/kg IP), the “Gastric emptying: % change” value worked out at 43%.

In the case of `O=C(NC1CN2CCC1CC2)c1ccccc1` (centres unmarked) [N-(1-azabicyclo[2.2.2]oct-3-yl)benzamide], the reported activities result in assay [1] is “hypotensive, narcotic and ganglionic stimulation and blocking activities”.

For the molecule `Nc1cc(OCc2cccc(Cl)c2)c(C(=O)NC2CN3CCC2CC3)cc1Cl` (centres unmarked) [Example VI, 4-Amino-N-(1-azabicyclo[2.2.2]oct-3-yl)-5-chloro-2-[(3-chlorophenyl)methoxy]benzamide], the “Gastric emptying: % change” value in assay [2] (1.0 mg/kg IP) was 52%.
